“Also recorded” adds a separate entry of the source. Where two headings read alike, the source gives them in different places. Where no end group is shown, it is not given here.
How the values were obtained:
human islets [1] = assay: Glucose-stimulated insulin secretion (GSIS) assay, human islets; format: cell-based; details: for GSIS response / insulin secretion compared to C-95 peptide: human islets, 1 μM peptide overnight, 28 mM glucose
Method: (§1) Human islet cells were similarly incubated with a N-94 peptide or C-95 peptide for varying periods of time following which GSIS assay and viability measurements were conducted. Insulin was measured using Insulin ELISA kit (Mercodia, Uppsala, Sweden).
(§2) Human islet cells were incubated overnight with 1 μM N-94 peptide (SEQ ID NO: 1), N-94/C6 peptide (SEQ ID NO: 62), N104 peptide, Tearpep3 peptide (SEQ ID NO: 21), Tearpep3/C6 peptide (SEQ ID NO: 33), C-95 peptide, or no treatment followed by GSIS assays (se FIG. 2A for the structures of, and Table 2 for the sequences of, these exemplary peptides). C57BL/6 islet cells were pretreated with 4 μM N-94 N-94 peptide or C-95 peptide or saline for 24 hours followed by minimal islet mass transplantation into syngeneic diabetic recipients. Tail vein blood glucoses were measured daily.
(§3) 50 human islets were incubated with N-94 peptide or C-95 peptide for 1, 3, 4, 6 and 9 days following which GSIS assay and viability measurement were conducted. Insulin was measured using Insulin ELISA kit (Mercodia).
Human islets were incubated overnight with 1 μM N-94 peptide, N-94/C6 peptide, N104 peptide, Tearpep3 peptide, Tearpep3/C6 peptide, C-95 peptide, or no treatment and GSIS assay performed.

C57BL/6 islets [2] = assay: Glucose-stimulated insulin secretion (GSIS) assay, mouse islets; format: cell-based; details: for insulin secreted in GSIS assay: 50 islets/well, high glucose (28 mM); for GSIS: mouse islet cells
Method: C57BL/6 islets were also incubated overnight with 4 μM N-94 peptide (SEQ ID NO: 1) or C-95 peptide or no additive following which Glucose-stimulated Insulin secretion (GSIS) assays were performed.
C57BL/6 islets were incubated overnight with 4 μM N-94 peptide or C-95 peptide or no additive. 50 islets/well were used to perform Glucose stimulated Insulin secretion (GSIS) assay. Islets that were untreated or treated with C-95 peptide or with N-94 peptide and stimulated with high glucose (28 mM) secreted 39.86±7.81, 54.9±18.14, and 91±22.16 ng/ml Insulin. N-94 peptide increased insulin secretion by 2-fold compared to untreated control. Viability of human islets incubated with N-94 peptide at Day 1, 3, 4, 6, and 9 was 95±4, 95±3, 94±4, 84±9, and 80±15% while with C-95 it was 94±4, 91±7, 88±8, 66±16, and 65±18%. With saline it was 94±4, 94±3, 88±8, 58±19, and ˜53. While GSIS results were similar to the mouse results, maximum insulin secretion activity with N-94 peptide was only observed on Day 1 and 3.

C57BL/6 islets [3] = format: cell-based, mouse; details: for viability of islets: C57BL/6, mouse, 4 μM; for mouse islet viability (in words): isolated mouse pancreatic islets, 4 μM peptide, in vitro
Method: C57BL/6 islets (see FIG. 3) were cultured with 4 μM N-94 (N-94) peptide or control peptide C-95 for different time periods ranging from 1-15 days in DMEM at 37° C. Viability of islets was scored by propidium iodide-fluorescein diacetate staining. 35 C57BL/6 islets/per well were cultured with 4 μM of N-94 peptide analog N-94 or control C-95 peptide for 1, 2, 5, 7,10 or 15 days in DMEM at 37° C. Viability of islets was scored after staining with PI/FDA. Islets cultured with N-94 peptide retained 95±3, 89±15, 80±17.5 and 61±21% viability while islets cultured with C-95 peptide retained 95±3, 87±13, 40±28 and 20±19% viability at Day 1, 5, 10 and 15.

[4] = tested on: C57BL/6 mice made diabetic by single streptozotocin injection; assay: Minimal islet mass transplantation of peptide-pretreated islets into streptozotocin-diabetic mice, blood glucose; format: in vivo, mouse
Method: as §2
75 C57Bl/6 islets were transplanted into C57BL/6 recipients made diabetic by single STZ injection (220 mg/Kg). Islets were pretreated with 4 μM N-94 peptide or C-95 peptide or saline for 24 hours prior to transplantation into diabetic mice (n=2 mice/group). Tail vein blood glucoses were measured daily. Incubation of islets with N-94 peptide permanently returned transplanted mice to normoglycemia with glucoses below 200 mg/dL within 9 days posttransplant. With C-95 peptide treatment, the glucose at Day 12 posttransplant was <250 mg/dL. Mice transplanted with untreated islets remained diabetic.
FIG. 4 is a graph of blood glucose levels of pancreatic islets treated with the indicated peptides and transplanted into diabetic mice observed for 60 days. Shown is a graph of blood glucose levels after minimal transplantation of 75 N-94 peptide-treated, C-95 peptide-treated, or saline-treated C57Bl/6 islets under the kidney capsule of C57BL/6 mice made diabetic before transplantation by single streptozotocin injection (220 mg/kg; two mice per group). Pretreatment was for 24 hours. Tail vein blood was collected daily for glucose analyses. Each line represents the progressive blood glucose level of a single diabetic mouse. Six mice each received N-94 peptide treated islets (black), six others received C-95 peptide treated islets (blue), and four received saline treated islets (orange). N-94 peptide permanently returned transplanted mice to normoglycemia with glucose below 200 mg/dL within 9 days post-transplantation with treatment efficacy continuing after 40 days post-transplantation. With C-95 peptide treatment, the glucose at Day 12 post-transplant was <250 mg/dL. Average blood glucoses measured between Days 22 to 43 were 142.9±17.6 mg/dL for the N-94 group compared to 275±34.8 mg/dL for the C-95 peptide group.

human islets [5] = assay: Viability of cultured human islets; format: cell-based
Method: as §1, §3
Human islets were treated with various peptides of the presently disclosed subject matter and viability was assessed at twenty days post-treatment.

human sensory neurons = assay: Viability of iPSC-derived sensory neurons stressed with inflammatory cytokines (Alamar Blue); format: cell-based; details: day 21 neurons, IFN-γ (1000 U/mL)+TNF-α (100 ng/mL), 1 mM peptide, 72 hours
Method: Whether the peptides of the presently disclosed subject matter could enhance viability of human sensory neurons stressed with inflammatory cytokines was tested. Sensory neurons were derived from Induced Pluripotent Stem Cells (iPSC). iPSCs were seeded into 12 well Matrigel-coated plates (1.25×10^5 cells/well). Neural differentiation was initiated when cells were confluent using KSR medium. 100 nM of LDN-193189 and […] of SB431542 were added to the culture from day 0 to 6, to inhibit SMAD signaling. On day 4, 25% of N2 medium was added to the culture, with 100% of N2 medium at day 10. Sensory neurons induction was initiated at day 2 (day 2-10), with the addition of […] CHIR 99021, […] SU5402, and […] DAPT. From day 10 to day 21 neuron maturation was promoted with 25 ng/mL of β-NGF, BDNF, and GDNF. Cells were fed every day.
Sensory neurons (day 21) were incubated with IFN-g (1000 U/mL)+TNF-α (100 ng/mL) with or without 1 mM of the N-94/C-6 peptide or the negative control C-95 peptide for 72 hours in a 96-well plate. Alamar Blue reagent (10%) was added in each well. Fluorescence was measured after 6 hours (excitation at 545 nm/emission at 590 nm).

[6] = C57BL/6 islets, 4 μM peptide overnight
[7] = 75 islets pretreated 24 hours with 4 μM peptide, STZ-diabetic C57BL/6 mice

| Sequence | GSIS response / insulin secretion compared to C-95 peptide (human islets [1]) | insulin secreted in GSIS assay (C57BL/6 islets [2]; [6]) | GSIS (C57BL/6 islets [2]; 4 μM peptide overnight) | viability of islets (C57BL/6 islets [3]; 1 days) | viability of islets (C57BL/6 islets [3]; 5 days) | viability of islets (C57BL/6 islets [3]; 10 days) | viability of islets (C57BL/6 islets [3]; 15 days) | mouse islet viability (in words) (C57BL/6 islets [3]) | average blood glucose between Days 22 to 43 [4, 7] | viability of human islets (human islets [5]; 1 days) | viability of human islets (human islets [5]; 3 days) | viability of human islets (human islets [5]; 4 days) | viability of human islets (human islets [5]; 6 days) | viability of human islets (human islets [5]; 9 days) | also measured |
| --- | --- | --- | --- | --- | --- | --- | --- | --- | --- | --- | --- | --- | --- | --- | --- |
| AQKLLKKFSLLKPWA [N-104] | ~3.5 fold |  |  |  |  |  |  |  |  |  |  |  |  |  | rank of activity in glucose-dependent insulin secretion assay (human islets [1]; 100 human islets, 1 μM peptide, 24 hours): Most active |
| EDASSDSTGADPAQEAGTSKPNEE [C-95, reference compound] |  | 54.9 ± 18.14 ng/mL | 54.9 ± 18.1 ng/mL | 95±3% | 87±13% | 40±28% | 20% | not | 275 ± 34.8 mg/dL | 94±4% | 91±7% | 88±8% | 66% | 65±18% | blood glucose at Day 12 posttransplant [4, 7]: < 250 mg/dL |
| GKNRRKNWHAQLFVL [Tearpep3/N-104] |  |  |  |  |  |  |  |  |  |  |  |  |  |  | viability of human islets twenty days after isolation (in words) (human islets [5]; human islets, 4 μM peptide, versus 4 μM Tearpep3/C-6 and lacritin N-94): superior viability |
| KQFIENGSEFAQKLLKKFS [N-94/C-6, fragment of lacritin] |  |  |  |  |  |  |  |  |  |  |  |  |  |  | viability of stressed human sensory neurons (in words) (human sensory neurons): restored viability |
| KQFIENGSEFAQKLLKKFSLLKPWA [N-94] | near doubling; also recorded: nearly doubled | 91 ± 22.16 ng/mL | 91 ± 22 ng/mL | 95±3% | 89±15% | 80±17.5% | 61% | promotes mouse islet viability | 142.9 ± 17.6 mg/dL | 95±4% | 95±3% | 94±4% | 84% | 80±15% | increase of GSIS / insulin secretion compared to untreated (C57BL/6 islets [2]; C57BL/6 islets, 4 μM peptide overnight, high glucose): ~2 fold; glucose-dependent insulin secretion (in words) (C57BL/6 islets [2]; isolated mouse pancreatic islets, 4 μM peptide, treatment 24 hours after islet isolation): promotes; time to normoglycemia (glucose below 200 mg/dL) posttransplant [4, 7]: ≤ 9 days; treatment efficacy continuing posttransplant [4, 7]: > 40 days; blood glucose on return to normoglycemia ([4]; 75 islets pretreated 24 hours with 4 μM peptide, transplanted into STZ-diabetic C57BL/6 mice, within 9 days posttransplant): below 200 mg/dL; effect of peptide-pretreated islet transplant on diabetes (in words) ([4]; pretreated islets transplanted into streptozotocin diabetic mice): rapidly restores normoglycemia; also recorded: reverse disease |
